According to ChEMBL document CHEMBL4665867, “Design and synthesis of analogues of the sphingosine-1-phosphate receptor 1 agonist IMMH001 with improved phosphorylation rate in human blood” (Bioorg Med Chem, 2020):

What was measured:
Assay type in all cases: ADME, tissue-based
[1] = biological target: T1, Sphingosine kinase 1/2 (Homo sapiens, UniProt Q9NRA0+Q9NYA1); assay: Prodrug conversion in human blood assessed as SPHK1/SPHK2-mediated compound phosphorylation by measuring Km by LC-MS/MS analysis
[2] = biological target: T1, Sphingosine kinase 1/2; assay: Prodrug conversion in human blood assessed as SPHK1/SPHK2-mediated compound phosphorylation by measuring Vmax by LC-MS/MS analysis
[3] = biological target: T2, Sphingosine kinase 1/2 (Rattus norvegicus, UniProt Q91V26+A6JB73); assay: Prodrug conversion in rat blood assessed as SPHK1/SPHK2-mediated compound phosphorylation by measuring Vmax by LC-MS/MS analysis
[4] = biological target: T2, Sphingosine kinase 1/2; assay: Prodrug conversion in rat blood assessed as SPHK1/SPHK2-mediated compound phosphorylation by measuring Km by LC-MS/MS analysis
[5] = biological target: T1, Sphingosine kinase 1/2; assay: Prodrug conversion in human blood assessed as SPHK1/SPHK2-mediated compound phosphorylation by measuring intrinsic clearance by LC-MS/MS analysis
[6] = biological target: T2, Sphingosine kinase 1/2; assay: Prodrug conversion in rat blood assessed as SPHK1/SPHK2-mediated compound phosphorylation by measuring intrinsic clearance by LC-MS/MS analysis

Km [1] [µM]	Vmax [2] [pmol/min]	Vmax [3] [pmol/min]	Km [4] [µM]	CL [5] [µL/min]	CL [6] [µL/min]	Structure (SMILES)
42.62	0.53	37.24	85.25	0.012	0.437	CCCc1nc(-c2ccc(-c3ccc(CCC(N)(CO)CO)cc3)cc2)co1.Cl
86.55	2.15	4.13	23.6	0.025	0.175	CCCc1nc(-c2ccc(-c3ccc(CC[C@@](C)(N)CO)cc3)cc2)co1.Cl
54.12	2.63	16.15	48.37	0.049	0.334	CCCc1nc(-c2ccc(-c3ccc(CC[C@@H](N)CO)cc3)cc2)co1.Cl
23.7	0.31	61.3	64.6	0.013	0.95	CCCCCCCCc1ccc(CCC(N)(CO)CO)cc1.Cl [FINGOLIMOD HYDROCHLORIDE]
